Test results taken from patent publication US20090012045A1, “Methods of Treating Cell Proliferative Disorders” (RIGEL PHARMACEUTICALS, INC., priority 2007, published 2009).

Assays:
K-562 = K-562 (Leukemia)
RPM1-8226 = RPM1-8226 (Leukemia)
A549/ATCC = A549/ATCC (Non-Small Cell Lung Cancer)
EKVX = EKVX (Non-Small Cell Lung Cancer)
NCI-H226 = NCI-H226 (Non-Small Cell Lung Cancer)
COLO 205 = COLO 205 (Colon Cancer)
HCC-2998 = HCC-2998 (Colon Cancer)
HCT-116 = HCT-116 (Colon Cancer)
KM12 = KM12 (Colon Cancer)
LOX I MVI = LOX I MVI (Melanoma)
MALME-3M = MALME-3M (Melanoma)
M14 = M14 (Melanoma)
SK-MEL-5 = SK-MEL-5 (Melanoma)
UACC-62 = UACC-62 (Melanoma)
IGROV1 = IGROV1 (Ovarian Cancer)
OVCAR-3 = OVCAR-3 (Ovarian Cancer)
OVCAR-4 = OVCAR-4 (Ovarian Cancer)
OVCAR-5 = OVCAR-5 (Ovarian Cancer)
OVCAR-8 = OVCAR-8 (Ovarian Cancer)
SK-OV-3 = SK-OV-3 (Ovarian Cancer)
786-0 = 786-0 (Renal Cancer)
ACHN = ACHN (Renal Cancer)
RXF 393 = RXF 393 (Renal Cancer)
DU-145 = DU-145 (Prostate Cancer)
BT-549 = BT-549 (Breast Cancer)
PC-3 = experiment: in vitro antiproliferation assay, Prostate Cancer; conditions: PC-3 (Prostate Cancer)

COc1cc(Nc2ncc(F)c(Nc3ccc4c(n3)NC(=O)C(C)(C)O4)n2)cc(OC)c1OC.O=S(=O)(O)c1ccccc1 [Compound 1 (besylate salt), N4-(2,2-Dimethyl-3-oxo-4H-5-pyrid[1,4]oxazin-6-yl)-5-fluoro-N2-(3,4,5-trimethoxyphenyl)-2,4-pyrimidinediamine Benzenesulfonic Acid Salt]
GI50 (K-562): > 100 µM | TGI (K-562): >1.00E−4 | CC50 (K-562; read-out: LC50): > 100 µM | GI50 (RPM1-8226): > 100 µM | TGI (RPM1-8226): >1.00E−4 | CC50 (RPM1-8226; read-out: LC50): > 100 µM | TGI (A549/ATCC): >1.00E−4 | CC50 (A549/ATCC; read-out: LC50): > 100 µM | GI50 (EKVX): 1.66 µM | TGI (EKVX): >1.00E−4 | CC50 (EKVX; read-out: LC50): > 100 µM | GI50 (NCI-H226): 0.497 µM | CC50 (NCI-H226; read-out: LC50): > 100 µM | GI50 (COLO 205): 7.26 µM | TGI (COLO 205): >1.00E−4 | CC50 (COLO 205; read-out: LC50): > 100 µM | GI50 (HCC-2998): > 100 µM | TGI (HCC-2998): >1.00E−4 | CC50 (HCC-2998; read-out: LC50): > 100 µM | TGI (HCT-116): >1.00E−4 | CC50 (HCT-116; read-out: LC50): > 100 µM | GI50 (KM12): 0.355 µM | TGI (KM12): >1.00E−4 | CC50 (KM12; read-out: LC50): > 100 µM | GI50 (LOX I MVI): 1.13 µM | TGI (LOX I MVI): 1.13E−6 | CC50 (LOX I MVI; read-out: LC50): > 100 µM | GI50 (MALME-3M): > 100 µM | TGI (MALME-3M): >1.00E−4 | CC50 (MALME-3M; read-out: LC50): > 100 µM | GI50 (M14): > 100 µM | TGI (M14): >1.00E−4 | CC50 (M14; read-out: LC50): > 100 µM | GI50 (SK-MEL-5): > 100 µM | TGI (SK-MEL-5): >1.00E−4 | CC50 (SK-MEL-5; read-out: LC50): > 100 µM | TGI (UACC-62): >1.00E−4 | CC50 (UACC-62; read-out: LC50): > 100 µM | GI50 (IGROV1): 0.796 µM | TGI (IGROV1): >1.00E−4 | CC50 (IGROV1; read-out: LC50): > 100 µM | GI50 (OVCAR-3): > 100 µM | TGI (OVCAR-3): >1.00E−4 | CC50 (OVCAR-3; read-out: LC50): > 100 µM | GI50 (OVCAR-4): > 100 µM | TGI (OVCAR-4): >1.00E−4 | CC50 (OVCAR-4; read-out: LC50): > 100 µM | GI50 (OVCAR-5): > 100 µM | TGI (OVCAR-5): >1.00E−4 | CC50 (OVCAR-5; read-out: LC50): > 100 µM | GI50 (OVCAR-8): > 100 µM | TGI (OVCAR-8): >1.00E−4 | CC50 (OVCAR-8; read-out: LC50): > 100 µM | GI50 (SK-OV-3): 0.429 µM | TGI (SK-OV-3): >1.00E−4 | CC50 (SK-OV-3; read-out: LC50): > 100 µM | GI50 (786-0): 0.873 µM | TGI (786-0): >1.00E−4 | CC50 (786-0; read-out: LC50): > 100 µM | GI50 (ACHN): 1.24 µM | TGI (ACHN): >1.00E−4 | CC50 (ACHN; read-out: LC50): > 100 µM | GI50 (RXF 393): 0.196 µM | TGI (RXF 393): 7.74E−7 | CC50 (RXF 393; read-out: LC50): > 100 µM | TGI (DU-145): >1.00E−4 | CC50 (DU-145; read-out: LC50): > 100 µM | GI50 (BT-549): 2.43 µM | TGI (BT-549): >1.00E−4 | CC50 (BT-549; read-out: LC50): > 100 µM | GI50 (PC-3): 3.07 µM | TGI (PC-3): >1.00E−4 | CC50 (PC-3; read-out: LC50): > 100 µM
